Data on 21 compounds can be found in ChEMBL document CHEMBL3352564, “Synthesis, Structure, and SAR of Tetrahydropyran-Based LpxC Inhibitors” (ACS Med Chem Lett, 2014).

By IC50 is commonly meant the concentration that gives 50% inhibition. High values mean weaker potency in that assay, low ones greater potency in that assay. In general, MIC refers to the least concentration at which growth counts as inhibited. The inhibition is the relative decrease from the control value, in per cent.

In assay [1] the target is T1, UDP-3-O-acyl-N-acetylglucosamine deacetylase (Pseudomonas aeruginosa (strain ATCC 15692 / PAO1 / 1C / PRS 101 / LMG12228), UniProt P47205).
T1 sequence (P47205 whole entry): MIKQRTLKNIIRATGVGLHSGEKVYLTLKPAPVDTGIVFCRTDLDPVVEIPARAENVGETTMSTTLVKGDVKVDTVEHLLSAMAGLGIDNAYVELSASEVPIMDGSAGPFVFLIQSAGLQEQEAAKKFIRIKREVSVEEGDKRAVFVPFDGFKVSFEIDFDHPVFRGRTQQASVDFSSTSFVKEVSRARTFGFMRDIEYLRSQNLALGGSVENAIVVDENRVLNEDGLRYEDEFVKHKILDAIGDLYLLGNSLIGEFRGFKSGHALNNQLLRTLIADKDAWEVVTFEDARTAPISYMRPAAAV
Description: Inhibition of Pseudomonas aeruginosa LpxC using UDP-3-O-(R-3-hydroxydecanoyl)-N-acetylglucosamine as substrate preincubated for 20 mins before substrate addition by LC/MS/MS analysis.

Assay [2] relates to Pseudomonas aeruginosa. The assay is described as follows: Antimicrobial activity against MexABCDXY-deficient Pseudomonas aeruginosa PAO1 ARC546 by CLSI dilution method. The class given is functional.
The test system of assay [3] is Pseudomonas aeruginosa. Description: Antimicrobial activity against Pseudomonas aeruginosa PAO1 ARC545 by CLSI dilution method. Type of assay: functional.
Assay [4] concerns Escherichia coli. Description: Antimicrobial activity against TolC-deficient Escherichia coli ARC524 W3110 harboring mutant by CLSI dilution method. The class given is functional.
Assay [5] concerns Escherichia coli. The assay is described as follows: Antimicrobial activity against Escherichia coli ARC523 W3110 harboring mutant by CLSI dilution method. Type of assay: functional.
Assay [6] has as its target 72 kDa type IV collagenase (Homo sapiens) (UniProt P08253). The assay is described as follows: Inhibition of MMP2 (unknown origin) at 10 uM.
Assay [7] has as its target Collagenase 3 (Homo sapiens) (UniProt P45452). Description: Inhibition of MMP13 (unknown origin) at 10 uM.
Assay [8] concerns the target 72 kDa type IV collagenase (Homo sapiens) (UniProt P08253). Description: Inhibition of MMP2 (unknown origin) at 30 uM.
For assay [9], the target named is Collagenase 3 (Homo sapiens) (UniProt P45452). The assay is described as follows: Inhibition of MMP13 (unknown origin) at 30 uM.
The target is the same in assay [10]. The assay is described as follows: Inhibition of MMP13 (unknown origin) at 15 uM.

Each structure is given as a SMILES string. Converted amounts (≈) assume the structure as drawn. A value given as a limit tells only on which side of the number the result lay.

72 kDa type IV collagenase (Homo sapiens), sequence (P08253 110-660 limits assumed): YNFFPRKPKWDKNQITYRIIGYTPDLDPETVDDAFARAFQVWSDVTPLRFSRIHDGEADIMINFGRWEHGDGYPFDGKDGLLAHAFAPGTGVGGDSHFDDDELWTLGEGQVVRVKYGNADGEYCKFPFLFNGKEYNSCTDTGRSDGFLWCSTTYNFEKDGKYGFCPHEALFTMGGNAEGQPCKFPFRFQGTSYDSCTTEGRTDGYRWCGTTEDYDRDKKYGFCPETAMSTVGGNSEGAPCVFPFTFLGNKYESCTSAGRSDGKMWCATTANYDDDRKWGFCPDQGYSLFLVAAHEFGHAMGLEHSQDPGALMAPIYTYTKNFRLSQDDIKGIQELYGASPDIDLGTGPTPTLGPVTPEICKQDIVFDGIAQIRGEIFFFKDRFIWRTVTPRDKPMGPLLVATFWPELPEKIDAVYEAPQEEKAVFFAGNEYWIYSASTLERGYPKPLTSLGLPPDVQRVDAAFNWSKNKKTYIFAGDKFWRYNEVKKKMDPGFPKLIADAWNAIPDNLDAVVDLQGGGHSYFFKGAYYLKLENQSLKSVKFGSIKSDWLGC

Turning to `O=C(NO)C1(COc2ccc(-c3ccccc3)cc2)CCOCC1`, the IC50 in assay [1] was 8.7 nM. Further, the MIC in [2] was 6.25 µM (≈ 2.05 µg/mL); in [3] it was 100 µM (≈ 32.7 µg/mL); in [4], over 200 µM; in assay [5], over 200 µM.
For the compound `O=C(NO)C1(COc2ccc(C#Cc3ccc(CN4CCOCC4)cc3)cc2)CCC(O)CC1` (stereo not given), in assay [1], the IC50 worked out at 82.5 nM. The MIC in [2] was 25 µM (≈ 11.6 µg/mL); in assay [3] it was over 200 µM; in [4], 25 µM (≈ 11.6 µg/mL); in [5], over 200 µM.
For `O=C(NO)C1(COc2ccc(OCc3ccccc3)cc2)CCOCC1`, half-maximal inhibition in assay [1] (IC50) was put at 14 nM. In addition, the MIC in [2] is 6.25 µM (≈ 2.23 µg/mL); in assay [3], 200 µM (≈ 71.5 µg/mL); in [4], 200 µM (≈ 71.5 µg/mL); in assay [5] it was over 200 µM.
In assay [1], `O=C(NO)C1(C[S+]([O-])c2ccc(C#Cc3ccc(CN4CCOCC4)cc3)cc2)CCOCC1` (racemic) gave an IC50 of 3.1 nM. Moreover, the MIC in assay [2] was under 0.2 µM; in assay [3], 25 µM (≈ 12.1 µg/mL); in assay [4], under 0.2 µM; in [5], 1.56 µM (≈ 0.753 µg/mL). Also, the values for the inhibition in assay [6] and in assay [7] were 97% and 96%, respectively.
As for `O=C(NO)C1(COc2ccc(C#Cc3ccc(CN4CCN(CCn5ccnc5)CC4)cc3)cc2)CCOCC1`, in [1], the IC50 was 2 nM. Further, the MIC in assay [2] came out at 0.78 µM (≈ 0.424 µg/mL); in [3], 50 µM (≈ 27.2 µg/mL); in assay [4], 0.78 µM (≈ 0.424 µg/mL); in assay [5], 6.25 µM (≈ 3.4 µg/mL). Besides, the inhibition was found to be 93% in assay [6] and 80% in assay [7].
In turn, `CN1CCN(Cc2ccc(C#Cc3ccc(OCC4(C(=O)NO)CCOCC4)cc3)cc2)CC1` displayed an IC50 in assay [1] of 6.1 nM. In addition, the MIC in assay [2] was 1.56 µM (≈ 0.723 µg/mL); in assay [3] it was 100 µM (≈ 46.4 µg/mL); in [4], 3.13 µM (≈ 1.45 µg/mL); in assay [5], 50 µM (≈ 23.2 µg/mL).
For `CC(C)(O)C#CC#Cc1ccc(OCC2(C(=O)NO)CCOCC2)cc1` the same measures were 139 nM, 25 µM (≈ 8.94 µg/mL), over 200 µM, 6.25 µM (≈ 2.23 µg/mL) and 200 µM (≈ 71.5 µg/mL).
For `O=C(NO)C1(COc2ccc(C#Cc3ccc(CN4CCN(CCN5CCOCC5)CC4)cc3)cc2)CCOCC1`, half-maximal inhibition in assay [1] (IC50) required 2.7 nM. In addition, the MIC in assay [2] came out at 0.78 µM (≈ 0.439 µg/mL); in assay [3], 50 µM (≈ 28.1 µg/mL); in assay [4] it was 1.56 µM (≈ 0.878 µg/mL); in assay [5], 25 µM (≈ 14.1 µg/mL).
For `O=C(NO)C1(CSc2ccc(C#Cc3ccc(CN4CCOCC4)cc3)cc2)CCOCC1`, it took 0.2 nM to reach half-maximal inhibition in assay [1] (IC50). Further, the minimal inhibitory concentration (MIC) in assay [2] was 0.39 µM (≈ 0.182 µg/mL); in [3], 25 µM (≈ 11.7 µg/mL); in assay [4] it was under 0.2 µM; in [5] it was 3.13 µM (≈ 1.46 µg/mL).
In the same order, the values of `COC1CCC(COc2ccc(C#Cc3ccc(CN4CCOCC4)cc3)cc2)(C(=O)NO)CC1` (stereo not given) are 8.6 nM, 3.13 µM (≈ 1.5 µg/mL), over 200 µM, 6.25 µM (≈ 2.99 µg/mL) and 100 µM (≈ 47.9 µg/mL).
In assay [1], `O=C(NO)C1(COc2ccc(C#Cc3ccc(CN4CCOCC4)cc3)cc2)CCOCC1` gave a 50% inhibitory concentration (IC50) of 4.4 nM. The MIC was found to be 1.56 µM (≈ 0.703 µg/mL) in [2], 100 µM (≈ 45.1 µg/mL) in [3], 1.56 µM (≈ 0.703 µg/mL) in assay [4] and 12.5 µM (≈ 5.63 µg/mL) in assay [5]. Moreover, the inhibition in assay [6] turned out to be 94%; in assay [7], 82%.
For `CN(C)CC1CN(Cc2ccc(C#Cc3ccc(OCC4(C(=O)NO)CCOCC4)cc3)cc2)CCO1` (stereo not given), the IC50 in assay [1] is 5.8 nM. The MIC stood at 3.13 µM (≈ 1.59 µg/mL) in [2], 100 µM (≈ 50.8 µg/mL) in assay [3], 6.25 µM (≈ 3.17 µg/mL) in assay [4] and 200 µM (≈ 102 µg/mL) in [5].
Compound `CC(C)N1CCN(Cc2ccc(C#Cc3ccc(OCC4(C(=O)NO)CCOCC4)cc3)cc2)CC1` showed an IC50 in assay [1] of 7.5 nM. For the same compound, the MIC in assay [2] was determined as 3.13 µM (≈ 1.54 µg/mL); in assay [3], 100 µM (≈ 49.2 µg/mL); in assay [4] it was 12.5 µM (≈ 6.15 µg/mL); in [5] it was 100 µM (≈ 49.2 µg/mL).
With `COc1ccc(CNCc2ccc(C#Cc3ccc(OCC4(C(=O)NO)CCOCC4)cc3)cc2)cc1`, it took 10 nM to reach half-maximal inhibition in assay [1] (IC50). The MIC was determined as 6.25 µM (≈ 3.13 µg/mL) in assay [2], 100 µM (≈ 50.1 µg/mL) in [3], 12.5 µM (≈ 6.26 µg/mL) in [4] and 50 µM (≈ 25 µg/mL) in assay [5].
For `O=C(NO)C1(COc2ccc(C#CC#Cc3ccccc3)cc2)CCOCC1`, in [1], the concentration for half-maximal inhibition (IC50) is 33 nM. The MIC is over 200 µM in [2], over 200 µM in [3], 50 µM (≈ 18.8 µg/mL) in [4] and 200 µM (≈ 75.1 µg/mL) in [5].
For `C[C@@H](O)[C@H](NC(=O)c1ccc(C#Cc2ccc(CN3CCOCC3)cc2)cc1)C(=O)NO`, the MIC in assay [2] is under 0.2 µM; in assay [3], 1.56 µM (≈ 0.682 µg/mL); in assay [4], under 0.2 µM; in assay [5] it was under 0.2 µM. The inhibition in [8] was 12%; in [9], 30%.
In assay [1], `CC(=O)N1CCN(Cc2ccc(C#Cc3ccc(OCC4(C(=O)NO)CCOCC4)cc3)cc2)CC1` gave an IC50 of 3 nM. Besides, the MIC in assay [2] came out at 0.78 µM (≈ 0.383 µg/mL); in assay [3], 50 µM (≈ 24.6 µg/mL); in assay [4], 0.39 µM (≈ 0.192 µg/mL); in assay [5], 25 µM (≈ 12.3 µg/mL).
`O=C(NO)C1(CSc2ccc(Oc3ccc(Cl)cc3)cc2)CCOCC1` yielded an IC50 in assay [1] of 7.4 nM. The MIC in assay [2] is 6.25 µM (≈ 2.46 µg/mL); in assay [3], 50 µM (≈ 19.7 µg/mL); in assay [4], 50 µM (≈ 19.7 µg/mL); in assay [5], over 200 µM. The compound also registered an inhibition in [10] of 99%.
Compound `O=C(NO)C1(COc2ccc(Oc3ccccc3)cc2)CCOCC1` had an IC50 in assay [1] of 92 nM. In addition, the MIC in [2] was 25 µM (≈ 8.58 µg/mL); in [3] it was over 200 µM; in [4] it was over 200 µM; in assay [5] it was over 200 µM.
For the compound `C[C@@H]1CN(Cc2ccc(C#Cc3ccc(OCC4(C(=O)NO)CCOCC4)cc3)cc2)C[C@H](C)O1`, the IC50 in assay [1] came to 2.6 nM. Further, the MIC was 3.13 µM (≈ 1.5 µg/mL) in [2], over 200 µM in [3], 0.39 µM (≈ 0.187 µg/mL) in assay [4] and 12.5 µM (≈ 5.98 µg/mL) in assay [5]. The values for the inhibition in [6] and in assay [7] were 92% and 75%, respectively.
In turn, `O=C(CN1CCN(Cc2ccc(C#Cc3ccc(OCC4(C(=O)NO)CCOCC4)cc3)cc2)CC1)N1CCOCC1` came in with an IC50 in [1] of 1.7 nM. The minimum inhibitory concentration (MIC) in assay [2] is 12.5 µM (≈ 7.21 µg/mL); in assay [3], over 200 µM; in assay [4] it was 25 µM (≈ 14.4 µg/mL); in assay [5], over 200 µM.
